Test results from PubChem BioAssay AID248 (DTP/NCI, 2004).
“And” between values parts separate entries of the source, which are not always exact repeats. Identical values can stand only once. Inconclusive results and toxic doses are left out.

System: L1210 leukemia ip in BDF1 mice, survival T/C
Assay: NCI In Vivo Anticancer Drug Screen. Data for tumor model L1210 Leukemia (intraperitoneal) in B6D2F1 (BDF1) mice
Conditions: endpoint: mean survival time, higher = longer survival
Outline: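 Ratio derived from survival: compound-dosed mice over vehicle-dosed mice, all bearing a transplantable tumor.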

[1] = dose: 100.0 mg/kg/injection, schedule: Q01DX Z (ip), vehicle: methylcellulose (MC)
[2] = dose: 100.0 mg/kg/injection, schedule: Q04DX003 (ip), vehicle: saline with Tween-80
[3] = dose: 200.0 mg/kg/injection, schedule: Q04DX003 (ip), vehicle: saline with Tween-80
[4] = dose: 400.0 mg/kg/injection, schedule: Q04DX003 (ip), vehicle: saline with Tween-80
[5] = dose: 100.0 mg/kg/injection, schedule: Q01DX009 (ip), vehicle: saline

For `O=C1C(Cl)=C(Cl)C(=O)c2ccccc21`, the T/C (dose: 0.5 mg/kg/injection, schedule: Q01DX009 (ip), vehicle: Klucel (hydroxypropylcellulose) (HPC)) was 108 % of control, the T/C (dose: 1.0 mg/kg/injection, schedule: Q01DX009 (ip), vehicle: Klucel (hydroxypropylcellulose) (HPC)) was 110 % of control and the T/C (dose: 1.0 mg/kg/injection, schedule: Q04DX003 (ip), vehicle: Klucel (hydroxypropylcellulose) (HPC)) was 105 % of control. For the same molecule, the T/C (dose: 2.0 mg/kg/injection, schedule: Q01DX009 (ip), vehicle: Klucel (hydroxypropylcellulose) (HPC)) was 108 % of control, the T/C (dose: 2.0 mg/kg/injection, schedule: Q04DX003 (ip), vehicle: Klucel (hydroxypropylcellulose) (HPC)) was 108 % of control and the T/C (dose: 4.0 mg/kg/injection, schedule: Q04DX003 (ip), vehicle: Klucel (hydroxypropylcellulose) (HPC)) was 110 % of control. The T/C (dose: 5.0 mg/kg/injection, schedule: Q01DX009 (ip), vehicle: saline with Tween-80) was 93 % of control, the T/C (dose: 10.0 mg/kg/injection, schedule: Q01DX009 (ip), vehicle: saline with Tween-80) was 97 % of control and the T/C (dose: 20.0 mg/kg/injection, schedule: Q01DX009 (ip), vehicle: saline with Tween-80) was 97 % of control.
For `O=C1NC(=S)S/C1=C/c1ccc(/C=C2/SC(=S)NC2=O)cc1`, the T/C (dose: 50.0 mg/kg/injection, schedule: Q01DX001 (ip), vehicle: carboxymethylcellulose (CMC)) was 92 % of control and the T/C (dose: 100.0 mg/kg/injection, schedule: Q01DX001 (ip), vehicle: carboxymethylcellulose (CMC)) was 94 % of control.
With `CCCCCCP(=O)(CCCCCC)CCCCCC` the T/C (dose: 44.0 mg/kg/injection, schedule: Q01DX Z (ip), vehicle: methylcellulose (MC)) was 89 % of control, the T/C (dose: 55.0 mg/kg/injection, schedule: Q01DX Z (ip), vehicle: methylcellulose (MC)) was 161 % of control and the T/C (dose: 66.0 mg/kg/injection, schedule: Q01DX Z (ip), vehicle: methylcellulose (MC)) was 93 % of control. The T/C (dose: 83.0 mg/kg/injection, schedule: Q01DX Z (ip), vehicle: methylcellulose (MC)) was 172 % of control, the T/C [1] was 96 % of control and the T/C (dose: 100.0 mg/kg/injection, schedule: Q04DX003 (ip), vehicle: Klucel (hydroxypropylcellulose) (HPC)) was 97 % of control. The T/C (dose: 200.0 mg/kg/injection, schedule: Q04DX003 (ip), vehicle: Klucel (hydroxypropylcellulose) (HPC)) was 110 % of control and the T/C (dose: 400.0 mg/kg/injection, schedule: Q04DX003 (ip), vehicle: Klucel (hydroxypropylcellulose) (HPC)) was 90 % of control.
In the case of `CC(=O)[O][Hg][c]1cc2c(cc1N)C(=O)c1ccccc1-2`, the T/C (dose: 12.5 mg/kg/injection, schedule: Q01DX001 (ip), vehicle: carboxymethylcellulose (CMC)) is reported as 102 % of control.
For `CC(C)C(=O)OCP(=O)(COC(=O)C(C)C)COC(=O)C(C)C`, the T/C [2] was 92 % of control, the T/C [3] was 97 % of control and the T/C [4] was 93 % of control.
For `C=C1c2ccccc2N(C)C1(COc1ccc(Cl)cc1)OC(=O)c1cccc(Cl)c1` (stereo not drawn), the T/C (dose: 100.0 mg/kg/injection, schedule: Q04DX002 (ip), vehicle: saline) was 88 % of control, the T/C (dose: 200.0 mg/kg/injection, schedule: Q04DX002 (ip), vehicle: saline) was 98 % of control and the T/C (dose: 400.0 mg/kg/injection, schedule: Q04DX002 (ip), vehicle: saline) was 98 % of control.
`Cc1[nH]c(=O)[nH]c(=O)c1CN1CCCCC1` was tested, and the T/C [2] was 100 % of control, the T/C [3] was 106 % of control and the T/C [4] was 93 % of control.
`CCOC(=O)C(C)C1(c2ccccc2)OC(=O)c2ccccc21` (stereo not drawn) was tested, and the T/C (dose: 100.0 mg/kg/injection, schedule: Q04DX002 (ip), vehicle: saline with Tween-80) was 108 % of control, the T/C (dose: 200.0 mg/kg/injection, schedule: Q04DX002 (ip), vehicle: saline with Tween-80) was 112 % of control and the T/C (dose: 400.0 mg/kg/injection, schedule: Q04DX002 (ip), vehicle: saline with Tween-80) was 97 % of control.
`O=C(O)CCCSCCSCCCC(=O)O` was tested, and the T/C [5] was 97 % of control, the T/C (dose: 200.0 mg/kg/injection, schedule: Q01DX009 (ip), vehicle: saline) was 103 % of control and the T/C (dose: 400.0 mg/kg/injection, schedule: Q01DX009 (ip), vehicle: saline) was 86 % of control.
`C1C[S][Sn]2([S]CCO1)[S]CCOCC[S]2` was tested, and the T/C (dose: 12.5 mg/kg/injection, schedule: Q01DX001 (ip), vehicle: saline with Tween-80) was 94 % of control, the T/C (dose: 25.0 mg/kg/injection, schedule: Q01DX001 (ip), vehicle: saline with Tween-80) was 106 % of control and the T/C (dose: 50.0 mg/kg/injection, schedule: Q01DX001 (ip), vehicle: saline with Tween-80) was 87 % of control.
`CCOC(CCc1c(-c2ccc([N+](=O)[O-])cc2)nc(N)[nH]c1=O)OCC` was tested, and the T/C (dose: 100.0 mg/kg/injection, schedule: Q01DX009 (ip), vehicle: saline with Tween-80) was 95 % of control, the T/C (dose: 200.0 mg/kg/injection, schedule: Q01DX009 (ip), vehicle: saline with Tween-80) was 111 % of control and the T/C (dose: 400.0 mg/kg/injection, schedule: Q01DX009 (ip), vehicle: saline with Tween-80) was 95 % of control.
`CN(Cc1cnc2cc(N)[nH]c(=O)c2n1)c1ccc(C(=O)NC(CCC(=O)O)C(=O)O)cc1` (stereo not drawn) was tested, and the T/C (dose: 100.0 mg/kg/injection, schedule: Q04DX002 (ip), vehicle: water) was 94 % of control, the T/C (dose: 200.0 mg/kg/injection, schedule: Q04DX002 (ip), vehicle: water) was 99 % of control and the T/C (dose: 400.0 mg/kg/injection, schedule: Q04DX002 (ip), vehicle: water) was 118 % of control.
With `O=C(CCC(=O)c1ccccc1)c1ccccc1` the T/C (dose: 100.0 mg/kg/injection, schedule: Q01DX001 (ip), vehicle: saline with Tween-80) was 100 % of control, the T/C (dose: 200.0 mg/kg/injection, schedule: Q01DX001 (ip), vehicle: saline with Tween-80) was 98 % of control and the T/C (dose: 400.0 mg/kg/injection, schedule: Q01DX001 (ip), vehicle: saline with Tween-80) was 95 % of control.
In the case of `CCOC(=O)CCN(CC(C)C)C(=S)Nc1ccccc1`, the T/C [1] is reported as 93 % of control.
With `Cc1cc(=O)n2c3c(cc(C#N)cc13)OC2` the T/C (dose: 100.0 mg/kg/injection, schedule: Q01DX009 (ip), vehicle: Klucel (hydroxypropylcellulose) (HPC)) was 90 % of control, the T/C (dose: 100.0 mg/kg/injection, schedule: Q04DX002 (ip), vehicle: Klucel (hydroxypropylcellulose) (HPC)) was 96 % of control and the T/C (dose: 200.0 mg/kg/injection, schedule: Q01DX009 (ip), vehicle: Klucel (hydroxypropylcellulose) (HPC)) was 98 % of control. The T/C (dose: 400.0 mg/kg/injection, schedule: Q01DX009 (ip), vehicle: Klucel (hydroxypropylcellulose) (HPC)) was 95 % of control and the T/C (dose: 400.0 mg/kg/injection, schedule: Q04DX002 (ip), vehicle: Klucel (hydroxypropylcellulose) (HPC)) was 89 % of control.
For `CCCCCCCCCCCCCC[n+]1ccccc1`, the T/C (dose: 0.25 mg/kg/injection, schedule: Q04DX003 (ip), vehicle: saline) was 96 % of control, the T/C (dose: 0.5 mg/kg/injection, schedule: Q01DX001 (ip), vehicle: saline) was 97 % of control and the T/C (dose: 0.5 mg/kg/injection, schedule: Q04DX003 (ip), vehicle: saline) was 94 % of control. For the same molecule, the T/C (dose: 1.0 mg/kg/injection, schedule: Q01DX001 (ip), vehicle: saline) was 105 % of control, the T/C (dose: 1.0 mg/kg/injection, schedule: Q04DX003 (ip), vehicle: saline) was 96 % of control and the T/C (dose: 2.0 mg/kg/injection, schedule: Q01DX001 (ip), vehicle: saline) was 112 % of control. For the same molecule, the T/C (dose: 2.0 mg/kg/injection, schedule: Q04DX003 (ip), vehicle: saline) was 96 % of control, the T/C (dose: 4.0 mg/kg/injection, schedule: Q04DX003 (ip), vehicle: saline) was 109 % of control and the T/C (dose: 62.5 micrograms/kg/injection, schedule: Q01DX009 (ip), vehicle: saline) was 119 % of control. For the same molecule, the T/C (dose: 125.0 micrograms/kg/injection, schedule: Q01DX009 (ip), vehicle: saline) was 100 % of control, the T/C (dose: 250.0 micrograms/kg/injection, schedule: Q01DX009 (ip), vehicle: saline) was 113 % of control and the T/C (dose: 500.0 micrograms/kg/injection, schedule: Q01DX009 (ip), vehicle: saline) was 105 % of control. For the same molecule, the T/C (dose: 1000.0 micrograms/kg/injection, schedule: Q01DX009 (ip), vehicle: saline) was 110 % of control.
In the case of `CCC1(Br)OC1=O` (stereo not drawn), the T/C (dose: 50.0 mg/kg/injection, schedule: Q01DX009 (ip), vehicle: acetone) is reported as 100 % of control, the T/C (dose: 100.0 mg/kg/injection, schedule: Q01DX009 (ip), vehicle: acetone) is reported as 99 % of control and the T/C (dose: 100.0 mg/kg/injection, schedule: Q04DX003 (ip), vehicle: acetone) is reported as 97 % of control. The T/C (dose: 200.0 mg/kg/injection, schedule: Q04DX003 (ip), vehicle: acetone) was 98 % of control.
With `CC1(c2ccco2)NC(=O)N(Cl)C1=O` (stereo not drawn) the T/C (dose: 6.0 mg/kg/injection, schedule: Q04DX003 (ip), vehicle: saline) was 93 % of control, the T/C (dose: 12.0 mg/kg/injection, schedule: Q04DX003 (ip), vehicle: saline) was 101 % of control and the T/C (dose: 25.0 mg/kg/injection, schedule: Q01DX009 (ip), vehicle: saline) was 87 % of control. The T/C (dose: 32.0 mg/kg/injection, schedule: Q04DX003 (ip), vehicle: saline) was 95 % of control, the T/C (dose: 50.0 mg/kg/injection, schedule: Q01DX009 (ip), vehicle: saline) was 98 % of control and the T/C (dose: 50.0 mg/kg/injection, schedule: Q04DX003 (ip), vehicle: saline) was 103 % of control. The T/C [5] was 88 % of control and the T/C (dose: 100.0 mg/kg/injection, schedule: Q04DX003 (ip), vehicle: saline) was 97 % of control and 103 % of control.
